Measured values reported in article PMC5291411, “Cytotoxic conjugates of betulinic acid and substituted triazoles prepared by Huisgen Cycloaddition from 30-azidoderivatives” (PLoS ONE, 2017).

Key:
CCRF-CEM = assay: Cytotoxic MTS assay, CCRF-CEM; format: cell-based; settings: Homo sapiens, 72 h, T-lymphoblastic leukemia
From the text: (§1) Cytotoxic activity of all synthesized compounds was investigated in vitro against eight human cancer cell lines and two non-tumor fibroblasts using the standard MTS test (Table 1). The cancer cell lines were derived from T-lymphoblastic leukemia CCRF-CEM, leukemia K562 and their multiresistant counterparts expressing P-glycoprotein, MRP1 and LRP proteins (CEM-DNR, K562-TAX), solid tumors including lung (A549) and colon (HCT116, HCT116p53-/-) carcinomas, osteosarcoma cell line (U2OS), and for comparison, tests were performed on two human non-cancer fibroblast cell lines (BJ, MRC-5).
(§2) Biological assays were performed in concordance with our previous publications [[29], [58]; [60]; [61]]. All cells (if not indicated otherwise) were purchased from the American Tissue Culture Collection (ATCC). The CCRF-CEM line is derived from T lymphoblastic leukemia, evincing high chemosenzitivity, K562 represent cells from an acute myeloid leukemia patient sample with bcr-abl translocation, U2OS line is derived from osteosarcoma, HCT116 is colorectal tumor cell line and its p53 gene knock-down counterpart (HCT116p53-/-, Horizon Discovery Ltd, UK) is a model of human cancers with p53 mutation frequently associated with poor prognosis, A549 line is lung adenocarcinoma. The daunorubicin resistant subline of CCRF-CEM cells (CEM-DNR bulk) and paclitaxel resistant subline K562-TAX were selected in our laboratory by the cultivation of maternal cell lines in increasing concentrations of daunorubicine or paclitaxel, respectively. The CEM-DNR bulk cells overexpress MRP-1 and P-glycoprotein protein, while K562-TAX cells overexpress P-glycoprotein only. Both proteins belong to the family of ABC transporters and are involved in the primary and/or acquired multidrug resistance phenomenon. MRC-5 and BJ cell lines were used as a non-tumor control and represent human fibroblasts. The cells were maintained in nunc/corning 80 cm^2 plastic tissue culture flasks and cultured in cell culture medium according to ATCC or Horizon recommendations (DMEM/RPMI 1640 with 5 g/L glucose, 2 mM glutamine, 100 U/mL penicillin, […] streptomycin, 10% fetal calf serum, and NaHCO3).
(§3) MTS assay was performed at Institute of Molecular and Translational Medicine by robotic platform (HighResBiosolutions). Cell suspensions were prepared and diluted according to the particular cell type and the expected target cell density (25000–35000 cells/mL based on cell growth characteristics). Cells were added by automatic pipetor (30 μL) into 384 well microtiter plates. All tested compounds were dissolved in 100% DMSO and four-fold dilutions of the intended test concentration were added in 0.15 μL aliquots at time zero to the microtiter plate wells by the echoacustic non-contact liquid handler Echo550 (Labcyte). The experiments were performed in technical duplicates and three biological replicates at least. The cells were incubated with the tested compounds for 72 h at 37°C, in a 5% CO2 atmosphere at 100% humidity. At the end of the incubation period, the cells were assayed by using the MTS test. Aliquots (5 μL) of the MTS stock solution were pipetted into each well and incubated for additional 1–4 h. After this incubation period, the optical density (OD) was measured at 490 nm with an Envision reader (Perkin Elmer). Tumor cell survival (TCS) was calculated by using the following equation: TCS = (ODdrug-exposed well/mean ODcontrol wells) × 100%. The IC50 value, the drug concentration that is lethal to 50% of the tumor cells, was calculated from the appropriate dose-response curves in Dotmatics software.

CEM-DNR = assay: Cytotoxic MTS assay, CEM-DNR; format: cell-based; settings: Homo sapiens, 72 h, daunorubicin resistant subline of CCRF-CEM
From the text: as §1, §2, §3

K562 = assay: Cytotoxic MTS assay, K562; format: cell-based; settings: Homo sapiens, 72 h, leukemia
From the text: as §1, §2, §3

K562-TAX = assay: Cytotoxic MTS assay, K562-TAX; format: cell-based; settings: Homo sapiens, 72 h, paclitaxel resistant subline of K562
From the text: as §1, §2, §3

A549 = assay: Cytotoxic MTS assay, A549; format: cell-based; settings: Homo sapiens, 72 h, lung adenocarcinoma
From the text: as §1, §2, §3

HCT116 = assay: Cytotoxic MTS assay, HCT116; format: cell-based; settings: Homo sapiens, HCT-116, 72 h, colorectal tumor
From the text: as §1, §2, §3

HCT116p53-/- = assay: Cytotoxic MTS assay, HCT116p53-/-; format: cell-based; settings: Homo sapiens, 72 h, p53 knock-down colorectal tumor
From the text: as §1, §2, §3

U2OS = assay: Cytotoxic MTS assay, U2OS; format: cell-based; settings: Homo sapiens, 72 h, osteosarcoma
From the text: as §1, §2, §3

BJ = assay: Cytotoxic MTS assay, BJ fibroblasts; format: cell-based; settings: Homo sapiens, 72 h, non-tumor fibroblasts
From the text: as §1, §2, §3

MRC-5 = assay: Cytotoxic MTS assay, MRC-5 fibroblasts; format: cell-based; settings: Homo sapiens, MRC5, 72 h, non-tumor fibroblasts
From the text: as §1, §2, §3

CCRF-CEM cells [1] = assay: Cell cycle and apoptosis analysis (propidium iodide flow cytometry); format: cell-based, human
Description: (§4) Together with the treated cells, control sample containing vehicle was harvested at the same time point after 24 h. After another 24 hours, cells were then washed with cold PBS and fixed in 70% ethanol added dropwise and stored overnight at -20°C. Afterwards, cells were washed in hypotonic citrate buffer, treated with RNAse (50 μg/mL) and stained with propidium iodide. Flow cytometer using a 488 nm single beam laser (Becton Dickinson) was used for measurement. Cell cycle was analyzed in the program ModFitLT (Verity), and apoptosis was measured in logarithmic model expressing percentage of the particles with propidium content lower than cells in G0/G1 phase (<G1) of the cell cycle. Half of the sample was used for pH3^Ser10 antibody (Sigma) labeling and subsequent flow cytometry analysis of mitotic cells.

CCRF-CEM cells [2] = assay: pH3Ser10 antibody labeling, flow cytometry of mitotic cells; format: cell-based, human
Description: as §4

CCRF-CEM cells [3] = assay: BrDU incorporation analysis (DNA synthesis); format: cell-based, human; parameters: DNA synthesis: unit not given here
Description: as §4
For this analysis, the same procedure of cultivation as previously was used. Before harvesting, 10 μM 5-bromo-2-deoxyuridine (BrDU), was added to the cells for puls-labeling for 30 min. Cells were fixed with ice-cold 70% ethanol and stored overnight. Before the analysis, cellswere washed with PBS, and resuspended in 2 M HCl for 30 min at room temperature to denature their DNA. Following neutralization with 0.1 M Na2B4O7 (Borax), cells were washed with PBS containing 0.5% Tween-20 and 1% BSA. Staining with primary anti-BrDU antibody (Exbio) for 30 min at room temperature in the dark followed. Cells were than washed with PBS and stained with secondary antimouse-FITC antibody (Sigma). Cells were then washed with PBS again and incubated with propidium iodide (0.1 mg/mL) and RNAse A (0.5 mg/mL) for 1 h at room temperature in the dark and afterwards analyzed by flow cytometry using a 488 nm single beam laser (FACSCalibur, Becton Dickinson).

CCRF-CEM cells [4] = assay: BrU incorporation analysis (RNA synthesis); format: cell-based, human; parameters: RNA synthesis: unit not given here
Description: as §4
Cells were cultured and treated as above. Before harvesting, pulse-labeling with 1 mM 5-bromouridine (BrU) for 30 min followed. The cells were then fixed in 1% buffered paraformaldehyde with 0.05% of NP-40 in room temperature for 15 min, and then stored in 4°C overnight. Before measurement, they werewashed in PBS with 1% glycin, washed in PBS again, and stained by primary anti-BrDU antibody crossreacting to BrU (Exbio) for 30 min at room temperature in the dark. After another washing step in PBS cells were stained by secondary antimouse-FITC antibody (Sigma). Following the staining, cells were washed with PBS and fixed with 1% PBS buffered paraformaldehyde with 0.05% of NP-40 for 1 hour. Cells were washed by PBS, incubated with propidium iodide (0.1 mg/mL) and RNAse A (0.5 mg/mL) for 1 h at room temperature in the dark, and finally analyzed by flow cytometry using a 488 nm single beam laser (FACS Calibur, Becton Dickinson).

| Structure (SMILES) | IC50 (CCRF-CEM) [µM] | IC50 (CEM-DNR) [µM] | IC50 (K562) [µM] | IC50 (K562-TAX) [µM] | IC50 (A549) [µM] | IC50 (HCT116) [µM] | IC50 (HCT116p53-/-) [µM] | IC50 (U2OS) [µM] | IC50 (BJ) [µM] | IC50 (MRC-5) [µM] | G0/G1 (%) (CCRF-CEM cells [1]; 1 × IC50) | G2/M (%) (CCRF-CEM cells [1]; 1 × IC50) | S (%) (CCRF-CEM cells [1]; 1 × IC50) | G0/G1 (%) (CCRF-CEM cells [1]; 5 × IC50) | G2/M (%) (CCRF-CEM cells [1]; 5 × IC50) | S (%) (CCRF-CEM cells [1]; 5 × IC50) | Sub G1 (%) (CCRF-CEM cells [1]; 5 × IC50) | pH3Ser10 (%) (CCRF-CEM cells [2]; 1 × IC50) | pH3Ser10 (%) (CCRF-CEM cells [2]; 5 × IC50) | effect on DNA synthesis (in words) (CCRF-CEM cells [3]) | also measured |
| --- | --- | --- | --- | --- | --- | --- | --- | --- | --- | --- | --- | --- | --- | --- | --- | --- | --- | --- | --- | --- | --- |
| C=C(Cn1cc(-c2ccccc2C=O)nn1)[C@@H]1CC[C@]2(C(=O)O)CC[C@]3(C)C(CCC4[C@@]5(C)CC[C@H](OC(C)=O)C(C)(C)C5CC[C@]43C)C12 (stereo partly drawn) [Compound 9b] | 3.3 | 4 | 3.6 | 3.9 | 14.8 | 6.4 | 9.5 | 12.8 | 31.3 | 28.9 | 58.6 | 19.5 | 21.9 | 35.7 | 18.1 | 46.2 | 51.9 | 1.19 | 0.37 | inhibiting | inhibition of the cell cycle in G0/G1 (in words) (CCRF-CEM cells [1]): highest accumulation; Sub G1 (%) (CCRF-CEM cells [1]; 1 × IC50): 10.8%; DNA synthesis (CCRF-CEM cells [3]; 1 × IC50, BrDU incorporation): 22.6; DNA synthesis (CCRF-CEM cells [3]; 5 × IC50, BrDU incorporation): 0.55; effect on RNA synthesis (in words) (CCRF-CEM cells [4]): inhibiting; RNA synthesis (CCRF-CEM cells [4]; 1 × IC50, BrU incorporation): 15.8; RNA synthesis (CCRF-CEM cells [4]; 5 × IC50, BrU incorporation): 0.08 |
| C=C(Cn1cc(-c2ccccn2)nn1)[C@@H]1CC[C@]2(C(=O)O)CC[C@]3(C)C(CCC4[C@@]5(C)CC[C@H](OC(C)=O)C(C)(C)C5CC[C@]43C)C12 (stereo partly drawn) [Compound 9c] | 9 | 14.4 | 22.1 | 13.8 | 13.2 | 30.3 | 13.7 | 16 | 29.5 | 27.6 | 48.9 | 20.3 | 30.9 | 40.5 | 21.0 | 38.5 | 65.6 | 1.47 | 0.89 | inhibiting | Sub G1 (%) (CCRF-CEM cells [1]; 1 × IC50): 7.2%; DNA synthesis (CCRF-CEM cells [3]; 1 × IC50, BrDU incorporation): 20.3; DNA synthesis (CCRF-CEM cells [3]; 5 × IC50, BrDU incorporation): 2.90; effect on RNA synthesis (in words) (CCRF-CEM cells [4]): inhibiting; RNA synthesis (CCRF-CEM cells [4]; 1 × IC50, BrU incorporation): 25.4; RNA synthesis (CCRF-CEM cells [4]; 5 × IC50, BrU incorporation): 0.40 |
| C=C(Cn1cc(-c2ccccc2C=O)nn1)[C@@H]1CC[C@]2(C(=O)O)CC[C@]3(C)C(CCC4[C@@]5(C)CC[C@H](O)C(C)(C)C5CC[C@]43C)C12 (stereo partly drawn) [Compound 11b] | 8.5 | 11.5 | > 50 | 13.7 | > 50 | 26.3 | 26.9 | > 50 | > 50 | > 50 | 59.0 | 15.7 | 25.3 | 45.5 | 19.1 | 35.4 | 65.6 | 0.88 | 1.19 | inhibiting | DNA synthesis (CCRF-CEM cells [3]; 1 × IC50, BrDU incorporation): 20.0; DNA synthesis (CCRF-CEM cells [3]; 5 × IC50, BrDU incorporation): 6.40; effect on RNA synthesis (in words) (CCRF-CEM cells [4]): inhibiting; RNA synthesis (CCRF-CEM cells [4]; 1 × IC50, BrU incorporation): 48.3; RNA synthesis (CCRF-CEM cells [4]; 5 × IC50, BrU incorporation): 38.1 |
